Assay results reported in patent US10604514B2, “6-(5-membered heteroaryl)isoquinolin-3-yl carboxamides and preparation and use thereof” (Samumed, LLC, priority 2017, dated 2020).
Where two headings read alike, the source gives them in different places.

Tests used:
[1] = system: Wnt activity (Sp5-Luc reporter in SW480 colon carcinoma cells); experiment: Wnt activity screening assay (Sp5-Luc reporter gene assay); type: cell-based, human; conditions: for EC50: Sp5-Luc reporter, SW480 cells, 36 to 48 hours; for inhibition at 10 µM: SW480, read-out: percent inhibition at 10 μM
Method in brief: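 Compounds at 10 points (1:3 steps, top 10 μM, 0.1% DMSO final) were incubated 36 to 48 h at 37° C with stable Sp5-Luc SW480 reporter cells in 1% FBS medium. Luciferase luminescence was then read and expressed relative to DMSO-only cells. Four-parameter variable-slope fitting yielded EC50 values.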

[2] = target: GSK3β kinase (Homo sapiens (Human), UniProt P49841); experiment: GSK3β kinase assay (Ser/Thr 09 peptide Z-lyte, FRET); type: biochemical; conditions: method text calls the value IC50;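 further: Coumarin/fluorescein emission ratio converted to percent phosphorylation against unphosphorylated (0%) and phosphorylated (100%) controls, 1 h compound incubation at room temperature, 11-point threefold dilutions from 10 µM, run in duplicate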
[3] = system: Tau phosphorylation at Ser396 (pSer396), SH-SY5Y cells; experiment: Tau phosphorylation at Ser396 (pSer396) in SH-SY5Y cells, ELISA/western blot; type: cell-based, human; conditions: SH-SY5Y cells, overnight (16-18 h), read-out: pSer396 Tau EC50;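 further: cell lysates probed for reduced Tau pSer396 via ELISA (colorimetric) or western blot (chemiluminescence), both with one shared pSer396 antibody, EC50 for lowering phosphorylation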
[4] = system: SW480 colon carcinoma cells; experiment: Cell viability assay (CellTiter-Glo) in SW480 cells; type: cell-based, human; conditions: for EC50: cell viability, SW480 cells, four days, CellTiter-Glo; for inhibition at 10 µM: SW480, read-out: percent inhibition at 10 μM;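 on all read-outs here: SW480 cells stably carrying an Sp5-luciferase TCF/LEF reporter, luminescent ATP signal as viability measure, DMSO-treated cells as control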
[5] = system: LL29 cells (primary human fibroblasts derived from IPF patients), α-smooth muscle actin; experiment: Inhibition of fibrotic process: αSMA in TGF-β1-treated primary human fibroblasts from IPF patients (LL29 cells); type: cell-based; conditions: for EC50: % αSMA-positive LL29 cells, TGF-β1 20 ng/mL, 4 days; for inhibition at 10 µM: read-out: percent inhibition at 10 μM
Method in brief: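 Read-out is the percentage of αSMA-positive cells by high-content imaging, excluding SYTOX green-positive dead/apoptotic cells, normalized to TGF-β1-only wells on the same plate. LL29 cells were exposed for 4 days at 37 °C to 20 ng/mL TGF-β1 plus 11-point, 2-fold compound dilutions in 0.1% DMSO.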

[6] = system: IL-6; experiment: IL-6 inhibition in LPS-stimulated human peripheral blood mononuclear cells (HTRF); type: cell-based; conditions: for EC50: IL-6, LPS-stimulated huPBMCs, HTRF; for inhibition at 10 µM: read-out: percent value in parentheses below EC50 >10
Method in brief: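 EC50 from a 4-parameter fit of DMSO-normalized HTRF (665/620 nm) IL-6 signal, duplicates. Compound was added to fresh human PBMCs in 1% FBS RPMI for 2 h (top 10 μM, 3-fold, 0.25% DMSO) before 22 h stimulation with LPS at 50 ng/mL, 37 °C.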

[7] = target: DYRK1A kinase (Homo sapiens (Human), UniProt Q13627); experiment: DYRK1A kinase assay (Ser/Thr 18 peptide Z-lyte, FRET); conditions: DYRK1A kinase; method text calls the value IC50
Procedure: Each compound was dissolved in DMSO as a 10 mM stock and used to prepare compound source plates.
This is a non-radioactive assay using fluorescence resonance energy transfer (FRET) between coumarin and fluorescein to detect kinase activity which is represented as a ratio of coumarin emission/fluorescein emission.
The mixture was allowed to incubate with the representative compounds for one hour at room temperature. All reactions were performed in duplicate. Unphosphorylated (“0% Control”) and phosphorylated (“100% control”) forms of Ser/Thr 18 served as control reactions. Additionally, an 11-point dose-response curve of Staurosporine (1 uM top) was run to serve as a positive compound control.
After incubation, Development Reagent A was diluted in Development Buffer then added to the reaction and allowed to further incubate for one hour at room temperature.
The percent phosphorylation was then calculated using the following formula: [1−((Em ratio×F100%)−C100%)/((C0%−C100%)+(Em ratio×(F100%−F0%)))]. Dose-response curves were generated and inhibitory concentration (IC50) values were calculated using non-linear regression curve fit in the Dotmatics' Studies Software (Bishops Stortford, UK).

Chain of GSK3β kinase (P49841 whole entry): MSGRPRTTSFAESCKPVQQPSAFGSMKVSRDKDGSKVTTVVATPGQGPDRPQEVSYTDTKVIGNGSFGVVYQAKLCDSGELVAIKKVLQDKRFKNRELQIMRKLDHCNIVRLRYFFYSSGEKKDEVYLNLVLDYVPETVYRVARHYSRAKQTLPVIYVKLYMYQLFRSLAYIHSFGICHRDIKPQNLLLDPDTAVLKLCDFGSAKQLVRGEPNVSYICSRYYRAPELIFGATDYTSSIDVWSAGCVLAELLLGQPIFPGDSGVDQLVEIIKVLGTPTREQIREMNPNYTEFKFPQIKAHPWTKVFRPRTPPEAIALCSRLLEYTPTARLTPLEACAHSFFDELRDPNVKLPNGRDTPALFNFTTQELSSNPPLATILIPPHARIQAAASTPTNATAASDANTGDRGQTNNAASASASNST

EC50 ([1]; Homo sapiens) [nM]	EC50 [2] [nM]	EC50 ([3]; Homo sapiens) [nM]	EC50 ([4]; Homo sapiens, 96 h) [nM]	EC50 ([6]; Homo sapiens, PBMC) [nM]	EC50 [7] [nM]	Structure (SMILES)	EC50 ([5]; Homo sapiens, Fibroblast, 96 h) [nM]	EC50 [1] [nM]	EC50 [3] [nM]	EC50 [4] [nM]	EC50 [5] [nM]	percent inhibition of IL-6 at 10 µM [6]	EC50 [6] [nM]	inhibition at 10 µM ([1]; Homo sapiens) [%]	inhibition at 10 µM ([4]; Homo sapiens) [%]	inhibition at 10 µM ([6]; Homo sapiens, PBMC) [%]	inhibition at 10 µM ([5]; Homo sapiens, Fibroblast) [%]
671	68	186	587	1250	3	Cc1ncc(-c2cc3cc(NC(=O)[C@H]4CC[C@H](N(C)C)CC4)ncc3cc2F)o1 [Compound 18, trans-4-(Dimethylamino)-N-(7-fluoro-6-(2-methyloxazol-5-yl)isoquinolin-3-yl)cyclohexane-1-carboxamide]	149	–	–	–	–	–	–	–	–	–	–
657	35	566	1060	9370	6	Cc1nnc(-c2ccc3cnc(NC(=O)[C@H]4CC[C@H](N)CC4)cc3c2)s1 [Compound 21, trans-4-Amino-N-(6-(5-methyl-1,3,4-thiadiazol-2-yl)isoquinolin-3-yl) cyclohexane-1-carboxamide]	340	–	–	–	–	–	–	–	–	–	–
725	17	161	2120	9370	4	Cc1nnc(-c2ccc3cnc(NC(=O)[C@H]4CC[C@H](N5CCOCC5)CC4)cc3c2)s1 [Compound 23, trans-N-(6-(5-Methyl-1,3,4-thiadiazol-2-yl)isoquinolin-3-yl)-4-morpholinocyclohexane-1-carboxamide]	489	–	–	–	–	–	–	–	–	–	–
1190	30	127	3640	8810	7	Cc1nnc(-c2ccc3cnc(NC(=O)C4CCNCC4)cc3c2)s1 [Compound 24, N-(6-(5-Methyl-1,3,4-thiadiazol-2-yl)isoquinolin-3-yl)piperidine-4-carboxamide]	573	–	–	–	–	–	–	–	–	–	–
> 10000	313	430	> 10000	> 10000	14	Cc1nnc(-c2ccc3cnc(NC(=O)C4(F)CCNCC4)cc3c2)s1 [Compound 25, 4-Fluoro-N-(6-(5-methyl-1,3,4-thiadiazol-2-yl)isoquinolin-3-yl)piperidine-4-carboxamide]	3870	–	–	–	–	–	–	34.3	40.3	8	–
6950	524	167	8530	> 10000	38	Cc1nnc(-c2ccc3cnc(NC(=O)C4(F)CCN(C)CC4)cc3c2)s1 [Compound 26, 4-Fluoro-1-methyl-N-(6-(5-methyl-1,3,4-thiadiazol-2-yl)isoquinolin-3-yl) piperidine-4-carboxamide]	> 10000	–	–	–	–	–	–	–	–	5.6	48.4
927	11	104	2090	> 10000	6	Cc1nnc(-c2ccc3cnc(NC(=O)C4CCN(CC(F)F)CC4)cc3c2)s1 [Compound 27, 1-(2,2-Difluoroethyl)-N-(6-(5-methyl-1,3,4-thiadiazol-2-yl)isoquinolin-3-yl)piperidine-4-carboxamide]	235	–	–	–	–	–	–	–	–	2.8	–
1110	8	89	> 10000	> 10000	4	Cc1nnc(-c2ccc3cnc(NC(=O)C4CCN(CC(C)(F)F)CC4)cc3c2)s1 [Compound 28, 1-(2,2-Difluoropropyl)-N-(6-(5-methyl-1,3,4-thiadiazol-2-yl)isoquinolin-3-yl)piperidine-4-carboxamide]	448	–	–	–	–	–	–	–	37.8	4.3	–
> 10000	337	3400	> 10000	> 10000	18	Cc1nnc(-c2ccc3cnc(NC(=O)N(C)C4CCN(C)CC4)cc3c2)s1 [Compound 29, 1-Methyl-3-(6-(5-methyl-1,3,4-thiadiazol-2-yl)isoquinolin-3-yl)-1-(1-methylpiperidin-4-yl)urea]	> 10000	–	–	–	–	–	–	45.6	28.2	6	3.2
3310	99	453	6840	> 10000	27	CNC1CCN(C(=O)Nc2cc3cc(-c4nnc(C)s4)ccc3cn2)CC1 [Compound 30, N-(6-(5-Methyl-1,3,4-thiadiazol-2-yl)isoquinolin-3-yl)-4-(methylamino) piperidine-1-carboxamide]	4110	–	–	–	–	–	–	–	–	9.3	–
2060	117	386	3800	> 10000	24	Cc1nnc(-c2ccc3cnc(NC(=O)N4CCC(N(C)C)CC4)cc3c2)s1 [Compound 31, 4-(Dimethylamino)-N-(6-(5-methyl-1,3,4-thiadiazol-2-yl)isoquinolin-3-yl) piperidine-1-carboxamide]	3710	–	–	–	–	–	–	–	–	19.8	–
> 10000	210	891	> 10000	> 10000	17	Cc1nnc(-c2ccc3cnc(NC(=O)N4CCC(N(C)CC(F)F)CC4)cc3c2)s1 [Compound 32, 4-((2,2-Difluoroethyl)(methyl)amino)-N-(6-(5-methyl-1,3,4-thiadiazol-2-yl)isoquinolin-3-yl)piperidine-1-carboxamide]	771	–	–	–	–	–	–	30.5	8.3	10.1	–
3500	23	321	4630	9320	9	Cc1nnc(-c2ccc3cnc(NC(=O)N4CC[C@H](N)[C@@H](F)C4)cc3c2)s1 [Compound 33, (3S,4S)-4-amino-3-fluoro-N-(6-(5-methyl-1,3,4-thiadiazol-2-yl)isoquinolin-3-yl)piperidine-1-carboxamide]	> 10000	–	–	–	–	–	–	–	–	–	49.9
3360	46	456	3760	> 10000	15	Cc1nnc(-c2ccc3cnc(NC(=O)N4CC[C@H](N(C)C)[C@@H](F)C4)cc3c2)s1 [Compound 34, (3S,4S)-4-(dimethylamino)-3-fluoro-N-(6-(5-methyl-1,3,4-thiadiazol-2-yl)isoquinolin-3-yl)piperidine-1-carboxamide]	> 10000	–	–	–	–	–	–	–	–	7	48.5
3340	84	543	4550	> 10000	26	Cc1nnc(-c2ccc3cnc(NC(=O)N4CC[C@H](NC(C)C)[C@@H](F)C4)cc3c2)s1 [Compound 35, (3S,4S)-3-Fluoro-4-(isopropylamino)-N-(6-(5-methyl-1,3,4-thiadiazol-2-yl)isoquinolin-3-yl)piperidine-1-carboxamide]	1020	–	–	–	–	–	–	–	–	9.6	–
3740	79	843	5700	> 10000	12	Cc1nnc(-c2ccc3cnc(NC(=O)N4CCOCC4)cc3c2)s1 [Compound 36, N-(6-(5-Methyl-1,3,4-thiadiazol-2-yl)isoquinolin-3-yl)morpholine-4-carboxamide]	5200	–	–	–	–	–	–	–	–	4	–

Structure (SMILES)	EC50 ([1]; Homo sapiens) [nM]	EC50 [2] [nM]	EC50 ([3]; Homo sapiens) [nM]	EC50 ([4]; Homo sapiens, 96 h) [nM]	EC50 ([6]; Homo sapiens, PBMC) [nM]	EC50 [7] [nM]	EC50 ([5]; Homo sapiens, Fibroblast, 96 h) [nM]	EC50 [1] [nM]	EC50 [3] [nM]	EC50 [4] [nM]	EC50 [5] [nM]	percent inhibition of IL-6 at 10 µM [6]	EC50 [6] [nM]	inhibition at 10 µM ([1]; Homo sapiens) [%]	inhibition at 10 µM ([4]; Homo sapiens) [%]	inhibition at 10 µM ([6]; Homo sapiens, PBMC) [%]	inhibition at 10 µM ([5]; Homo sapiens, Fibroblast) [%]
Cc1ncc(-c2ccc3cnc(NC(=O)C4CCN(CC(C)(F)F)CC4)cc3c2)o1 [Compound 20, 1-(2,2-Difluoropropyl)-N-(6-(2-methyloxazol-5-yl)isoquinolin-3-yl) piperidine-4-carboxamide]	–	41	–	–	–	5	–	2640	524	3070	480	(13.4%)	> 10000	–	–	–	–
